Measured values published in patent publication US4784845A, “Emulsion compostions for the parenteral administration of sparingly water soluble ionizable hydrophobic drugs” (American Cyanamid Company, priority 1985, dated 1988).
In brackets after ≈: the same amount, converted by molar mass. Where a name gives a salt, the structure may show the parent alone.

Experiments:
[1] = cited from earlier work; for Ambient Solution pH: commercial drug solution; for pH beyond which significant precipitation occurs: intravenous infusion, commercial drugs
soft tissues = details: extravasation about the site of attempted intravenous administration; cited from earlier work
physchem = assay type: physicochemical
Procedure: (§1) Because the antiarthritic triazine compound is a base, organic acids as counter-ions were studied to improve drug solubility. […] Additional drug complexes were prepared with various organic and inorganic acids. […] The inherent insolubility of the drug appears to be responsible, to some extent, for the preceding results. In order to overcome the drug insolubility problem one of the objectives considered was to design a dosage form which would improve drug absorption when given by intravenous, intramuscular or intra-articular injection.

[2] = Absorption and excretion of antiarthritic triazine candidate dosage forms; details: in vivo
Procedure: as §1

[3] = system: Marginal Ear Vein of Rabbits; experiment: Peripheral vein irritation on intravenous infusion, rabbits (Table IV); assay type: in vivo, rabbit; parameters: key: +: Positive or present; -: Negative or absent; details: 2 hour i.v. infusion, gross postmortem one day after
Procedure: The emulsion drug delivery system formulation of Emulsions 3 and 4 in Table III was tested in two species of animals, for peripheral vein irritation in order to determine the occurrence of local injection site adverse reactions. […] The two species of animals used were rabbits and dogs. The formulations were given intravenously in a peripheral vein using a Butterfly infusion set (Becton, Dickenson Co., Inc., Rutherford, N.J.). The marginal ear vein was used in the rabbit and the saphenous or the cephalic vein of the leg was used in the dog.
The formulations were given by slow intravenous infusion using a Sage syringe pump (Sage Instruments, Orion Research Inc., Cambridge, MA) over a 2 hour period. The animals were restrained but unanesthetized during the infusion. After the infusion, the animals were returned to their cages and offered food. The animals were sacrificed one day after the infusion.
At sacrifice, the infused vein was opened from the point of infusion and cardiad for several centimeters. The condition of the vein, its intima and the surrounding parenchyma, as well as the presence or absence of orange-yellow material and/or clots in the vein, were recorded in Tables IV and V.

[4] = Solubility of bisantrene in selected media and biological fluids (Table IB); assay type: physicochemical
[5] = Partitioning of bisantrene in blood; assay type: in vitro ADME; details: inferred from solubility characteristics and other information
From the text: In serum and plasma, however, due to increase in the pH, the solubility drops considerably and this may be the reason that the drug precipitates at the point of infusion. […] Thus, if the drug can be kept in solution long enough to allow complete dilution in the entire blood volume, then the partitioning should take place without the intermediate precipitation.

[6] = challenge tests, benzyl alcohol vs parabens as preservative; cited from earlier work
[7] = cited from earlier work
mammals = details: aqueous solution, intravenous; cited from earlier work
[8] = dissolved in oil phase of soybean oil emulsion, parenteral; cited from earlier work
[9] = propylene glycol, benzyl alcohol and ethyl alcohol as solvents; cited from earlier work
normal human subjects = details: single doses of 2.0 g, 24 subjects, cited from earlier work

In the case of `CC(C)NCC(O)COc1cccc2ccccc12` (racemic) [Inderal, propanolol], the “Ambient Solution pH” value [1] is given as 3.50 and the “pH beyond which significant precipitation occurs” value [1] is given as 6.00.
In the case of `COc1cccc2c1C(=O)c1c(O)c3c(c(O)c1C2=O)C[C@@](O)(C(=O)CO)C[C@@H]3O[C@H]1C[C@H](N)[C@H](O)[C@H](C)O1` [Adriamycin], the “tissue damage on extravasation” value (soft tissues) is listed as “massive tissue necrosis”.
With `CC(C)(C)C(C)(C)Nc1nc(NC(C)(C)C(C)(C)C)nc(N2CC3CCC(CC3)C2)n1` [Antiarthritic Triazine Compound, 3-[4,6-bis[(1,1-2,2-tetramethylpropyl)amino]-s-triazin-2-yl]-3-azabicyclo[3.2.2]nonane] the increase of solubility (physchem) was 0.5 to 1.0 mg/mL, the solubility (physchem) was 0.3 mg/mL (≈ 697 µM) and the solubility in water (physchem) was “insignificant solubility in water”. For the same compound, the solubility range (physchem) was 0.5 to 1.5 mg/mL, the solubility (physchem; 1,3-butylene glycol, organic solvent or mixture) was 0.3 mg/mL (≈ 697 µM) and the solubility (physchem; benzyl alcohol, organic solvent or mixture) was 0.8 mg/mL (≈ 1860 µM). The solubility (physchem; benzyl benzoate, organic solvent or mixture) was 1.3 mg/mL (≈ 3020 µM), the solubility (physchem; brij 35 2% solution) was 0.05 mg/mL (≈ 116 µM) and the solubility (physchem; cremophor el, organic solvent or mixture) was 0.2 mg/mL (≈ 464 µM). It also gave a solubility (physchem; dimethyl acetamide, organic solvent or mixture) of 0.7 mg/mL (≈ 1630 µM), a solubility (physchem; emulphor el-620p, organic solvent or mixture) of under 0.1 mg/mL and a solubility (physchem; ethanol usp, organic solvent or mixture) of under 0.1 mg/mL. For the same compound, the solubility (physchem; propylene glycol isostearate, organic solvent or mixture) was 1.5 mg/mL (≈ 3480 µM), the solubility (physchem; propylene glycol, organic solvent or mixture) was under 0.1 mg/mL and the solubility (physchem; triacetin, organic solvent or mixture) was 0.1 mg/mL (≈ 232 µM). For the same compound, the parenteral absorption [2] was “negligible”, the oral absorption ([2]; po) was “slightly better” and the dose excreted ([2]; oral, candidate dosage forms, preliminary, read-out: compound excreted in the feces) was about 90%.
In the case of `C[C@H](N)[C@H](O)c1cccc(O)c1` [Aramine, metaraminol], the “Ambient Solution pH” value [1] is given as 3.60 and the “pH beyond which significant precipitation occurs” value [1] is given as 5.80.
In the case of `OCCOCCN1CCN(C(c2ccccc2)c2ccc(Cl)cc2)CC1` (stereo not drawn) [Atarax, hydroxyzine], the “Ambient Solution pH” value [1] is given as 5.60 and the “pH beyond which significant precipitation occurs” value [1] is given as 6.40.
For `C(=N\NC1=NCCN1)/c1c2ccccc2c(/C=N/NC2=NCCN2)c2ccccc12` [Bisantrene HCl], the “External: Reddened” value ([3]; sex F) was “+”, the “External: Yellow Deposit” value ([3]; sex F) was “+” and the “Subcutaneous: Hemorrhage” value ([3]; sex F) was “-”. For the same compound, the “Vascular Lumen: Yellow Deposit” value ([3]; sex F) was “+”, the “External: Reddened” value ([3]; sex M) was “-” and the “External: Swollen” value ([3]; sex M) was “-”. The “External: Yellow Deposit” value ([3]; sex M) was “-”, the “Subcutaneous: Edema” value ([3]; sex M) was “+” and the “Subcutaneous: Hemorrhage” value ([3]; sex M) was “-”. For the same compound, the “Subcutaneous: Yellow Deposit” value ([3]; sex M) was “-”, the “Vascular Lumen: Blood Clot” value ([3]; sex M) was “-” and the “Vascular Lumen: Yellow Deposit” value ([3]; sex M) was “+”.
`C(=N\NC1=NCCN1)/c1c2ccccc2c(/C=N/NC2=NCCN2)c2ccccc12` [Bisantrene, bis(2-imidazolen-2-ylhydrazone)-9,10-anthracenedicarboxaldehyde] gave a solubility ([4]; 5% dextrose solution, pH 4.6) of 10 mg/mL (≈ 25100 µM), a solubility ([4]; Plasma, pH 7.7-8.2) of 0.09 mg/mL (≈ 226 µM) and a solubility ([4]; Whole Blood, pH 7.9) of 0.4 mg/mL (≈ 1000 µM). For the same compound, the solubility ([4]; normal saline, pH 5.5) was 2 mg/mL (≈ 5020 µM), the solubility ([4]; serum, pH 7.8) was 0.027 mg/mL (≈ 67.8 µM) and the partitioning into erythrocytes [5] was “eventually partitions into the erythrocytes”.
In the case of `N#CC(CCN1CCC(C(N)=O)(N2CCCCC2)CC1)(c1ccccc1)c1ccccc1` [Dipidolor, piritramide], the “Ambient Solution pH” value [1] is listed as 3.97 and the “pH beyond which significant precipitation occurs” value [1] is listed as 4.50.
For `O=C(CCCN1CC=C(n2c(=O)[nH]c3ccccc32)CC1)c1ccc(F)cc1` [Droperidol], the “Ambient Solution pH” value [1] is given as 3.24 and the “pH beyond which significant precipitation occurs” value [1] is given as 5.83.
For `CC(=O)Nc1ccc(OCC(O)CNC(C)C)cc1` (stereo not drawn) [Eraldin, practolol], the “Ambient Solution pH” value [1] is listed as 5.80 and the “pH beyond which significant precipitation occurs” value [1] is listed as 7.40.
In the case of `COc1ccc2c(c1)N(C[C@H](C)CN(C)C)c1ccccc1S2` [Nozinan, levomepromize], the “Ambient Solution pH” value [1] is listed as 4.38 and the “pH beyond which significant precipitation occurs” value [1] is listed as 6.50.
In the case of `OCCN(CCO)c1nc(N2CCCCC2)c2nc(N(CCO)CCO)nc(N3CCCCC3)c2n1` [Persantine, dipyridamole], the “Ambient Solution pH” value [1] is given as 3.12 and the “pH beyond which significant precipitation occurs” value [1] is given as 5.10.
In the case of `CC(CN1c2ccccc2Sc2ccccc21)N(C)C` (stereo not drawn) [Phenergan, promethazine], the “Ambient Solution pH” value [1] is listed as 5.68 and the “pH beyond which significant precipitation occurs” value [1] is listed as 6.42.
For `CN(C)CCCN1c2ccccc2Sc2ccccc21` [Prazine, promazine], the “Ambient Solution pH” value [1] is listed as 4.85 and the “pH beyond which significant precipitation occurs” value [1] is listed as 7.10.
For `OCc1ccccc1` [benzyl alcohol], the antibacterial activity [6] is given as “higher antibacterial activity”, the acute systemic toxicity ([7]; 0.9% (w/v), intravenous) is given as “absence of acute systemic toxicity” and the half-life ([7]; in vivo, iv) is given as 1.5 h. For the same compound, the volume of distribution ([7]; in vivo) was “widespread tissue dissemination”.
In the case of `C(=N\NC1=NCCN1)/c1c2ccccc2c(/C=N/NC2=NCCN2)c2ccccc12` [bisantrene dihydrochloride], the chemical phlebitis (mammals) is given as “chemical phlebitis”.
For `CC1CC(OC(=O)C(O)c2ccccc2)CC(C)(C)C1` (stereo not drawn) [cyclandelate], the “pharmacological effects compared with water solution of the sodium salts” value [8] is listed as “nearly equal”.
In the case of `CN1C(=O)CN=C(c2ccccc2)c2cc(Cl)ccc21` [diazepam], the “pharmacological effects compared with water solution of the sodium salts” value [8] is listed as “nearly equal” and the “local reactions upon intravenous injection” value [9] is listed as “may not only cause pain upon intravenous injection, but also thrombophlebitis”.
In the case of `C[C@H]1C[C@@H]2[C@H]([C@@H](O)C[C@@]3(C)[C@H]2CC[C@]3(O)C(=O)COC(=O)CCC(=O)O)[C@@]2(C)C=CC(=O)C=C12` [methylprednisolone sodium succinate], the “tolerability / side effects” value (normal human subjects; benzyl alcohol or paraben preservative) is listed as “well tolerated and no important drug-related side effects were encountered”, the “changes in vital signs, electrocardiograms, electroencephalograms, or laboratory parameters” value (normal human subjects) is listed as “No clinically significant changes” and the “expected corticosteroid induced changes” value (normal human subjects) is listed as “reversible”.
For `O=[N+]([O-])OCC(CO[N+](=O)[O-])O[N+](=O)[O-]` [nitroglycerin], the “pharmacological effects compared with water solution of the sodium salts” value [8] is listed as “nearly equal”.
